# Test results: US7994179B2, “Carbamoyl compounds as DGAT1 inhibitors 190” (AstraZeneca AB, priority 2007, dated 2011)
# Molecular target: T1, human DGAT1 expressed in insect cell membranes (Homo sapiens, UniProt O75907)
# T1 construct: made in house; host or cells: sf9 insect cells (baculovirus), membrane fraction
# T1 sequence (O75907 1-488): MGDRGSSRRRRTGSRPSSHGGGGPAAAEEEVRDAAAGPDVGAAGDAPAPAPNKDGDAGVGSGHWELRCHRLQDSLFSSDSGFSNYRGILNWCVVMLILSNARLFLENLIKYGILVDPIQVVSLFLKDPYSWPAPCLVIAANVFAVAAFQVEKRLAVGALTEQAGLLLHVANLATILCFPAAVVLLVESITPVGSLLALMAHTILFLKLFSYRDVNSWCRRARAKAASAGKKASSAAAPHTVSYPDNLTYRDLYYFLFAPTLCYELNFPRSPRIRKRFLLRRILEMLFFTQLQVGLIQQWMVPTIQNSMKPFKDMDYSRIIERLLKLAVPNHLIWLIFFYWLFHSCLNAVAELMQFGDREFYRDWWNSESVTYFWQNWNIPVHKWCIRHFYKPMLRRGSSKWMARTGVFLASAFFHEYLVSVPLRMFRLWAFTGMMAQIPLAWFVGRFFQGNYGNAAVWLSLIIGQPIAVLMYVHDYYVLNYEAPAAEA
# Experiment: Human Enzyme Assay: in vitro DGAT1 inhibition, 14C oleoyl coenzyme A incorporation into triolein
# Type: biochemical
# Conditions: acetone concentration not stated for these values; usually a mean of 2 measurements; read-out: IC50
# Method: Briefly, sf9 cells were infected with recombinant baculovirus containing human DGAT1 coding sequences and harvested after 48 h. […] The membrane fraction at the interphase was collected, washed, and stored in liquid nitrogen.
# The reaction was started by adding ^14C oleoyl coenzyme A (30 μM final concentration) and incubated at room temperature for 30 minutes. The reaction was stopped by adding 200 μl 2-propanol:heptane 7:1. Radioactive triolein product was separated into the organic phase by adding 300 μl heptane and 100 μl 0.1 M carbonate buffer pH 9.5. DGAT1 activity was quantified by counting aliquots of the upper heptane layer by liquid scintillography.
# Stated figures are usually a mean of a number of measurements (usually 2 measurements) according to standard practice.
row,IC50 [nM],SMILES
1,310,"Cc1nc(C)c(-c2ccc(O[C@H]3CC[C@@H](C(=O)O)CC3)c(Cl)c2)nc1C(N)=O [Example 27, (1s,4s)-4-(4-(6-Carbamoyl-3,5-dimethylpyrazin-2-yl)-2-chlorophenoxy)cyclohexanecarboxylic acid]"
2,18,"Cc1nc(C)c(-c2ccc([C@H]3CC[C@H](CCO)CC3)cc2)nc1C(N)=O [Example 5, 6-{4-[trans-4-(2-Hydroxyethyl)cyclohexyl]phenyl}-3,5-dimethylpyrazine-2-carboxamide]"
3,3000,Cc1nc(C)c(-c2ccc(N3CCC[C@H](C(=O)O)C3)cc2)nc1C(N)=O [Example 34]
4,1300,Cc1nc(C)c(-c2ccc(-c3ccc(CC(=O)O)cc3)cc2F)nc1C(N)=O [Example 54]
